Among the data in ChEMBL document CHEMBL3632549, “Targeting EGFR/HER2 tyrosine kinases with a new potent series of 6-substituted 4-anilinoquinazoline hybrids: Design, synthesis, kinase assay, cell-based assay, and molecular docking” (Bioorg Med Chem Lett, 2015) are GI50 and IC50 values, retold here.

Test [1] concerns BT-474. Description: Cytotoxicity against human BT474 cells expressing HER2 after 72 hrs by Cell Titer Glo assay. Type of test: functional. Particulars: BT-474, 72 h; call rule not given here.
The target of test [2] is Receptor tyrosine-protein kinase erbB-2 (Homo sapiens, UniProt P04626). Nature of the test: Inhibition of HER2 (unknown origin) after 120 mins by HotSpot assay.
Chain of Receptor tyrosine-protein kinase erbB-2 (P04626 whole entry): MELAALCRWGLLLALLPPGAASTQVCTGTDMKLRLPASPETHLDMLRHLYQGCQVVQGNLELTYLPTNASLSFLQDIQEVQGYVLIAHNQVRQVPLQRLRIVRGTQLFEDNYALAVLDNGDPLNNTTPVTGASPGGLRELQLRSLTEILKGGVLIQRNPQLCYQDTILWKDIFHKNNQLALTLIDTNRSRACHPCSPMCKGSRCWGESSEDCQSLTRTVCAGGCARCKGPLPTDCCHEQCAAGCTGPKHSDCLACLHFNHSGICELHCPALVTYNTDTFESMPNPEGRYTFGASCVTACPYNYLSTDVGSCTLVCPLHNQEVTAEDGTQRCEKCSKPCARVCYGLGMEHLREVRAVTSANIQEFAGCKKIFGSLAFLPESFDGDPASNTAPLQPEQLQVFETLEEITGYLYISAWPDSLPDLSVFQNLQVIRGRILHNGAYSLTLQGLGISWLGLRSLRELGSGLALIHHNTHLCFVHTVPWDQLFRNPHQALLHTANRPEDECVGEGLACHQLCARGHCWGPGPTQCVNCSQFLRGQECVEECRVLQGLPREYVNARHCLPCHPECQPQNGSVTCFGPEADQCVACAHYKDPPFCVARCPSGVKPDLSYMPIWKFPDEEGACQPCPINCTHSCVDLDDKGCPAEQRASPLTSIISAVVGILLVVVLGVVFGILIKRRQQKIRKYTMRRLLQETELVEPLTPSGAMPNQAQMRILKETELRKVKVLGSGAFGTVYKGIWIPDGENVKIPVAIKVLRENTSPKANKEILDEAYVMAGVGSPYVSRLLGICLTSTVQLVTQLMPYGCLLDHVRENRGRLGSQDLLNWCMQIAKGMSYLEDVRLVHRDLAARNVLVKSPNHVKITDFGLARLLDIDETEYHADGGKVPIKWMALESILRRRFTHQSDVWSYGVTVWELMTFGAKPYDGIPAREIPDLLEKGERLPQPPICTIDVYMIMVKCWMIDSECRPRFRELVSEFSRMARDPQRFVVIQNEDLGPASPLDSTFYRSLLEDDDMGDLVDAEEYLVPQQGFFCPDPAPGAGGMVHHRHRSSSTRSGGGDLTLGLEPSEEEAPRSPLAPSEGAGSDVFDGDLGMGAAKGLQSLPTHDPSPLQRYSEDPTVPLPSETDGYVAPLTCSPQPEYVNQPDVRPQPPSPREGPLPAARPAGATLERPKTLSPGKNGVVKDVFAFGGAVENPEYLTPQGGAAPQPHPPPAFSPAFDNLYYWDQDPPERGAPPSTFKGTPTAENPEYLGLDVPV
The target of test [3] is Epidermal growth factor receptor (Homo sapiens, UniProt P00533). Nature of the test: Inhibition of EGFR (unknown origin) after 120 mins by HotSpot assay.
Chain of Epidermal growth factor receptor (P00533 whole entry): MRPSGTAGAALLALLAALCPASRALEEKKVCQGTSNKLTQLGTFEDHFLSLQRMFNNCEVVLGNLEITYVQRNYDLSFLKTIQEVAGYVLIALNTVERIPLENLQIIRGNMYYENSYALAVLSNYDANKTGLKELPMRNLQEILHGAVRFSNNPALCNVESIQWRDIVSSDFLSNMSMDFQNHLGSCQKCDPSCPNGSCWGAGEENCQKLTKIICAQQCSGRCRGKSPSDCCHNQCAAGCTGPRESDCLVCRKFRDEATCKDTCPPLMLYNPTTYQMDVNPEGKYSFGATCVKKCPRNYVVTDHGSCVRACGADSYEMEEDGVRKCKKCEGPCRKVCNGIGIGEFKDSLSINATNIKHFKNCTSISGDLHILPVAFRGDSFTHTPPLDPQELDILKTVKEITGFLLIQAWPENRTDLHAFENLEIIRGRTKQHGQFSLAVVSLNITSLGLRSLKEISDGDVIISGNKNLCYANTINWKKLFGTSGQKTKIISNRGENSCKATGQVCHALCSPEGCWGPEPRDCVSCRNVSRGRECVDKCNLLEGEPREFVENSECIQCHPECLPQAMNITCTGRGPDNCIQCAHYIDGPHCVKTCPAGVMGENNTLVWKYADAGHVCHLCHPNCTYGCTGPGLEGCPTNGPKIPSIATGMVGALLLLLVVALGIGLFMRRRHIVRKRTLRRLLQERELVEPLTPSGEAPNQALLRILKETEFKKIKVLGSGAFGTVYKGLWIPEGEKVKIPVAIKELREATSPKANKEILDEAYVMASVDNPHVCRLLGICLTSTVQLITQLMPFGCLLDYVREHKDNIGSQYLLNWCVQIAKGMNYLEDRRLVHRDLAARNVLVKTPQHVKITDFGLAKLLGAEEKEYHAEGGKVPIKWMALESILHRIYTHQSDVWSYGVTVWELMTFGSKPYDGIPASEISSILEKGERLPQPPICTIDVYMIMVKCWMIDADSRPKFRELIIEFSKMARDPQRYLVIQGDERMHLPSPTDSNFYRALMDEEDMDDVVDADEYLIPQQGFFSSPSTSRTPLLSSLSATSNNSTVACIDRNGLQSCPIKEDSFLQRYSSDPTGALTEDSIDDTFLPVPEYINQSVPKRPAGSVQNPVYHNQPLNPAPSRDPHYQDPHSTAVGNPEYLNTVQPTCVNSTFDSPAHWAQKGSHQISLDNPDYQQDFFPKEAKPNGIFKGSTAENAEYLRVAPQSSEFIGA
A short description of test [4]: Cytotoxicity against human L-132 cells after 48 hrs by MTT assay. Type of test: cell-based. Particulars: L132, 48 h.
Test [5] deals with Tyrosine-protein kinase Lck (Homo sapiens, UniProt P06239). Nature of the test: Inhibition of LCK (unknown origin) after 120 mins by HotSpot assay.
Chain of Tyrosine-protein kinase Lck (P06239 whole entry): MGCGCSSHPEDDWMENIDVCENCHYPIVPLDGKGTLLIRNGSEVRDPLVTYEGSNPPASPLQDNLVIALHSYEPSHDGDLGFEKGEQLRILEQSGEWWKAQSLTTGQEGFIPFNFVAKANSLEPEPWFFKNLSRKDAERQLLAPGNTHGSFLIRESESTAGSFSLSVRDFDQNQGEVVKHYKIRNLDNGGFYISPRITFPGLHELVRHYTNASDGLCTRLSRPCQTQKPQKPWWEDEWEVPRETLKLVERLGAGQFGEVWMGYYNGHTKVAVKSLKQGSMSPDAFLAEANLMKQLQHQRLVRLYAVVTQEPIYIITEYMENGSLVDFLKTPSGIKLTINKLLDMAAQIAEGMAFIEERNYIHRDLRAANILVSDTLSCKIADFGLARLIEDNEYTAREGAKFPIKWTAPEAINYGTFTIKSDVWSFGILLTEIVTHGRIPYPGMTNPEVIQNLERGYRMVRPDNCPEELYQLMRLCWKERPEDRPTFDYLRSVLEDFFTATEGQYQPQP
Test [6] concerns the target MAP kinase-activated protein kinase 2 (Homo sapiens, UniProt P49137). Description: Inhibition of MAPKAPK2 (unknown origin) after 120 mins by HotSpot assay.
The target of test [7] is Hepatocyte growth factor receptor (Homo sapiens, UniProt P08581). Nature of the test: Inhibition of c-MET (unknown origin) after 120 mins by HotSpot assay.
Test [8] deals with Fibroblast growth factor receptor 1 (Homo sapiens, UniProt P11362). Description: Inhibition of FGFR1 (unknown origin) after 120 mins by HotSpot assay.
Test [9] addresses Insulin-like growth factor 1 receptor (Homo sapiens, UniProt P08069). Description: Inhibition of IGF1R (unknown origin) after 120 mins by HotSpot assay.
Test [10] has as its target Mitogen-activated protein kinase 14 (Homo sapiens, UniProt Q16539). Description: Inhibition of P38a (unknown origin) after 120 mins by HotSpot assay.
For test [11], the target named is Focal adhesion kinase 1 (Homo sapiens, UniProt Q05397). Description: Inhibition of FAK (unknown origin) after 120 mins by HotSpot assay.
For test [12], the target named is Cyclin-dependent kinase 2 (Homo sapiens, UniProt P24941). Description: Inhibition of CDK2 (unknown origin) after 120 mins by HotSpot assay.
Test [13] addresses Vascular endothelial growth factor receptor 2 (Homo sapiens, UniProt P35968). Nature of the test: Inhibition of VEGFR2 (unknown origin) after 120 mins by HotSpot assay.

Chain of Mitogen-activated protein kinase 14 (Q16539 whole entry): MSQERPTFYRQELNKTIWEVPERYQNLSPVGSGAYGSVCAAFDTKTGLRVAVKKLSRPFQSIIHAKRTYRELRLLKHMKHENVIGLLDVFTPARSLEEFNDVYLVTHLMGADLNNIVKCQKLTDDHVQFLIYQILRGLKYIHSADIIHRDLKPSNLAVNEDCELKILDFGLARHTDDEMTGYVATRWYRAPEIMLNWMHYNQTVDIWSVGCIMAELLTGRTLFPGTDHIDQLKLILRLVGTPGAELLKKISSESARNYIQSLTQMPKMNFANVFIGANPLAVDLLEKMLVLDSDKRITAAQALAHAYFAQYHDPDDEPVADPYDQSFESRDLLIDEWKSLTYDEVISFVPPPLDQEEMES
Chain of MAP kinase-activated protein kinase 2 (P49137 whole entry): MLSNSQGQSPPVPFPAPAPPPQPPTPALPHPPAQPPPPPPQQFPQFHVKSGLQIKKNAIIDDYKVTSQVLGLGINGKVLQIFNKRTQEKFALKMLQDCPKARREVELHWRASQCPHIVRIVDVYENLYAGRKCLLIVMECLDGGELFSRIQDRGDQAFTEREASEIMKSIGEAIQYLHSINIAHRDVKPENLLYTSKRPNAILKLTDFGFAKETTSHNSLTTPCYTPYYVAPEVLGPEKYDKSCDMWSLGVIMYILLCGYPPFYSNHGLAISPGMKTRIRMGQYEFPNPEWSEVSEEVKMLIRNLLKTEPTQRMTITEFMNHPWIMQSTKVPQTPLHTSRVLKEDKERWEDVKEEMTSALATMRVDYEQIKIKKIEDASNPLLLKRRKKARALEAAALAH
Chain of Insulin-like growth factor 1 receptor (P08069 31-736 limits assumed): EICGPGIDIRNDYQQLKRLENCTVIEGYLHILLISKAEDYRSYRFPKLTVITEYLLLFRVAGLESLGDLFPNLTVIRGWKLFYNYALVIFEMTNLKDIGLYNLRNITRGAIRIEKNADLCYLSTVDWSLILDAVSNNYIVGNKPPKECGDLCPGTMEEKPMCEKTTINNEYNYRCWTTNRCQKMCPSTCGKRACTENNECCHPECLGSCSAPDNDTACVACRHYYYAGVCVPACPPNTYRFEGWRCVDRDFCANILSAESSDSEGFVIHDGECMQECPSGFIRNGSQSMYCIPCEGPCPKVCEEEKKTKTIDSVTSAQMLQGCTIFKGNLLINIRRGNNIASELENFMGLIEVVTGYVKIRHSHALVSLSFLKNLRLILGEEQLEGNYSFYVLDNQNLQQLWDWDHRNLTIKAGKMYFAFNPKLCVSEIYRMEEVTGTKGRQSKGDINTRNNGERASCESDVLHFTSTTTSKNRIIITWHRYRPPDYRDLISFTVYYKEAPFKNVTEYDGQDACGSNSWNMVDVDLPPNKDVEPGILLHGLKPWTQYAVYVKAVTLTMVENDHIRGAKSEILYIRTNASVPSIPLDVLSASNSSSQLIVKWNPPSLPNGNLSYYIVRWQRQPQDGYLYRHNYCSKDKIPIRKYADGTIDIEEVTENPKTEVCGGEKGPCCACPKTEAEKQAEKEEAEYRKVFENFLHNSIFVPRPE
Chain of Insulin-like growth factor 1 receptor (P08069 741-1367 limits assumed): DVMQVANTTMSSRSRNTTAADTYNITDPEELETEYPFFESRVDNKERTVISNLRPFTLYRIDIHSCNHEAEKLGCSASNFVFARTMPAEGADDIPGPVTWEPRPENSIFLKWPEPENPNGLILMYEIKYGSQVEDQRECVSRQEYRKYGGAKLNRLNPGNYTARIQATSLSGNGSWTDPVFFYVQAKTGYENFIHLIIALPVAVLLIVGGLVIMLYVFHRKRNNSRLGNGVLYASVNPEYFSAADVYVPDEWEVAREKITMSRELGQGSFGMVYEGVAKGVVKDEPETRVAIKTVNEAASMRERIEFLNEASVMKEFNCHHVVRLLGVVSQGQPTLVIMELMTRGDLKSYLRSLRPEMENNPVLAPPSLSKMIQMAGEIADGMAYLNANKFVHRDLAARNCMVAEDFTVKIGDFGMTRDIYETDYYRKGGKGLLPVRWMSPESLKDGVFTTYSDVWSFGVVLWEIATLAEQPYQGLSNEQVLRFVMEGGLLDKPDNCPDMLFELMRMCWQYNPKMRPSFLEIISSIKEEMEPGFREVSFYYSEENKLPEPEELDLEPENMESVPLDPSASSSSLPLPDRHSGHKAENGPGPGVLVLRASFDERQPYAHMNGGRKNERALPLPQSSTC

`CS(=O)(=O)CCNCc1ccc(-c2ccc3ncnc(Nc4ccc(OCc5cccc(F)c5)c(Cl)c4)c3c2)o1` [LAPATINIB] registered a 50% growth inhibitory concentration (GI50) in [1] of 930 nM.

With `CCOC(=O)C(=CNc1ccc2ncnc(Nc3ccc(OCc4cccc(F)c4)c(Cl)c3)c2c1)C(=O)OCC`, the IC50 in test [2] was determined as 5050 nM; in test [3], 812 nM.

`CCOC(=O)C(=CNc1ccc2ncnc(Nc3ccc(Oc4cccc(C(F)(F)F)c4)c(Cl)c3)c2c1)C(=O)OCC`: the IC50 in [2] came out at 1000 nM; in test [3], 23 nM.

As to `NC(=O)Nc1ccc(C(=O)Nc2ccc3ncnc(Nc4ccc(F)c(Cl)c4)c3c2)cc1`, the IC50 in test [2] worked out at 275 nM; in [3] it was 9 nM.

For the compound `CCNC(=O)Nc1ccc2ncnc(Nc3ccc(Oc4cccc(C(F)(F)F)c4)c(Cl)c3)c2c1`, the values for the IC50 in test [2] and in test [3] were 625 nM and 29 nM, respectively. The compound also registered a GI50 in test [1] of 3550 nM.

Regarding `N#CC(C#N)=CNc1ccc2ncnc(Nc3ccc(OCc4ccccn4)c(Cl)c3)c2c1`, the figures for the IC50 in test [2] and in test [3] were 8000 nM and 3050 nM, respectively.

As for `CCNC(=O)Nc1ccc(C(=O)Nc2ccc3ncnc(Nc4ccc(F)c(Cl)c4)c3c2)cc1`, the IC50 in test [2] worked out at 855 nM; in [3] it was 31 nM.

Turning to `CCNC(=O)Nc1ccc2ncnc(Nc3ccc(OCc4ccccn4)c(Cl)c3)c2c1`, the IC50 was 1390 nM in test [2], 227 nM in test [3] and greater than 100000 nM in test [4]. For the same compound, in test [1], the GI50 came to 1950 nM.

For the compound `CCNC(=O)Nc1ccc2ncnc(Nc3ccc(OCc4cccc(F)c4)c(Cl)c3)c2c1`, the IC50 in test [2] was 126 nM; in test [3] it was 35 nM; in [4], greater than 100000 nM. Also, the GI50 in [1] worked out at 1820 nM.

As to `CCOC(=O)C(=CNc1ccc2ncnc(Nc3ccc(OCc4ccccn4)c(Cl)c3)c2c1)C(=O)OCC`, the IC50 in [2] was found to be 3290 nM; in [3], 1020 nM.

Turning to `CCNC(=O)Nc1ccc2ncnc(Nc3ccc(Oc4ccc(Cl)c(Cl)c4)c(Cl)c3)c2c1`, the IC50 in test [2] and in [3] was greater than 10000 nM in each case. The same compound came in with a 50% growth inhibitory concentration (GI50) in [1] greater than 10000 nM.

In the case of `NC(=O)Nc1ccc2ncnc(Nc3ccc(OCc4cccc(F)c4)c(Cl)c3)c2c1`, the IC50 in test [2] came to 287 nM; in test [3], 99 nM. In addition, the GI50 in [1] is 4720 nM.

Consider `CC(=O)Nc1ccc2ncnc(Nc3ccc(OCc4ccccn4)c(Cl)c3)c2c1`, for which the IC50 was 1220 nM in test [5]; “Not Active” in test [6]; “Not Active” in test [7]; “Not Active” in test [8]; “Not Active” in test [9]; 16 nM in test [2]. Further, the IC50 in [3] was 3 nM; in test [4] it was greater than 100000 nM; in [10], “Not Active”; in test [11] it was “Not Active”; in test [12], “Not Active”; in test [13], “Not Active”. The compound further yielded a GI50 in [1] of 2700 nM.

As to `N#CC(C#N)=CNc1ccc2ncnc(Nc3ccc(OCc4cccc(F)c4)c(Cl)c3)c2c1`, the IC50 in test [2] is 2720 nM; in [3], 445 nM.

Turning to `NC(=O)Nc1ccc2ncnc(Nc3ccc(Oc4ccc(Cl)c(Cl)c4)c(Cl)c3)c2c1`, the IC50 in test [2] was 706 nM; in test [3] it was 543 nM. The compound also displayed a GI50 in test [1] of 2380 nM.

As to `CCOC(=O)C(=CNC(=O)Nc1ccc(C(=O)Nc2ccc3ncnc(Nc4ccc(F)c(Cl)c4)c3c2)cc1)C(=O)OCC`, the IC50 is greater than 10000 nM in test [2] and 1460 nM in test [3].

As for `N#CC(C#N)=CNc1ccc2ncnc(Nc3ccc(Oc4ccc(Cl)c(Cl)c4)c(Cl)c3)c2c1`, the IC50 in [2] and in test [3] was greater than 10000 nM each time.

For the compound `CCOC(=O)C(=CNc1ccc2ncnc(Nc3ccc(Oc4ccc(Cl)c(Cl)c4)c(Cl)c3)c2c1)C(=O)OCC`, the IC50 in [2] and in test [3] was greater than 10000 nM throughout.

As for `NC(=O)Nc1ccc2ncnc(Nc3ccc(Oc4cccc(C(F)(F)F)c4)c(Cl)c3)c2c1`, the IC50 in test [2] amounted to 77 nM; in [3], 4 nM. Further, in test [1], the GI50 is greater than 10000 nM.
